Experimental findings from patent publication US10894788B2, “Inhibitors of cyclin-dependent kinases” (Kinnate Biopharma Inc., priority 2018, dated 2021) are described below.

Each structure is given as a SMILES string.

CDK12, sequence (Q9NYV4 whole entry): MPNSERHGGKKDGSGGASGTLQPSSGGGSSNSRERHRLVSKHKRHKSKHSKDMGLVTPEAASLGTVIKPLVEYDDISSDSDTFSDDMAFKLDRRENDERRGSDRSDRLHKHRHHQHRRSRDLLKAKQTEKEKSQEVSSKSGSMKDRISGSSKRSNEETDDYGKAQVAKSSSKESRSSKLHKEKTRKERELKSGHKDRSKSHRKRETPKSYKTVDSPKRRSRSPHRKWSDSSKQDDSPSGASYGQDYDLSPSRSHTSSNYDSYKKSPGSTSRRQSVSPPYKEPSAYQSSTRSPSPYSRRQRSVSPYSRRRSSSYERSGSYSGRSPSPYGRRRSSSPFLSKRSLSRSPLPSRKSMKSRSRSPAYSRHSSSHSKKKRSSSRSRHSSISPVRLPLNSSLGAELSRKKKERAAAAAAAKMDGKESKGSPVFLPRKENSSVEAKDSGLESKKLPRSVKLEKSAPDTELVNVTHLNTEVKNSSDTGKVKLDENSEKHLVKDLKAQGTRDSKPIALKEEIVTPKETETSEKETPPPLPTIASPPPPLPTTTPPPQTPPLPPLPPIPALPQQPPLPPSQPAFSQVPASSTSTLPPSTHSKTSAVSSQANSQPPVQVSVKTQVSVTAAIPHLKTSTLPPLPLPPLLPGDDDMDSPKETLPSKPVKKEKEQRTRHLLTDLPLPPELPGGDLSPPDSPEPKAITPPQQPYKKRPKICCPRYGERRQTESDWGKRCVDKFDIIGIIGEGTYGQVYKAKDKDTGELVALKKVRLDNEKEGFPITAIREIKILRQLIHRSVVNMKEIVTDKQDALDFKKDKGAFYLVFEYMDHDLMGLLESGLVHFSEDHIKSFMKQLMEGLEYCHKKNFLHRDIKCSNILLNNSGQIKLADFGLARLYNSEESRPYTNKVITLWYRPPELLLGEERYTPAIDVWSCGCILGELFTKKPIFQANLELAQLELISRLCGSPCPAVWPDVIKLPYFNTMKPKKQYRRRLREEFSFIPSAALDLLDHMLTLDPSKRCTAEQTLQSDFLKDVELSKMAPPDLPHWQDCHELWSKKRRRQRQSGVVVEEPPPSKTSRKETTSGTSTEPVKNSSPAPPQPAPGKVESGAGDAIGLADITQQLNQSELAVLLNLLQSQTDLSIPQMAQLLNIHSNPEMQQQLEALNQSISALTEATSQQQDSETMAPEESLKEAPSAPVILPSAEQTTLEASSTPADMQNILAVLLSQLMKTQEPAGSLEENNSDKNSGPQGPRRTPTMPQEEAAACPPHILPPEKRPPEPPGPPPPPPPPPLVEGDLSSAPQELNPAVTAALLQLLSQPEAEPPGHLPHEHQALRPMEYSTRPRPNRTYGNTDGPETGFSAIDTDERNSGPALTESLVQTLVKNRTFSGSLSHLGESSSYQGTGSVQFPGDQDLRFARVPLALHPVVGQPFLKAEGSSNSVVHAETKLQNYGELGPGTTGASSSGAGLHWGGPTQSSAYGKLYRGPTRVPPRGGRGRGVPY
CDK12, sequence (O75909 whole entry partner): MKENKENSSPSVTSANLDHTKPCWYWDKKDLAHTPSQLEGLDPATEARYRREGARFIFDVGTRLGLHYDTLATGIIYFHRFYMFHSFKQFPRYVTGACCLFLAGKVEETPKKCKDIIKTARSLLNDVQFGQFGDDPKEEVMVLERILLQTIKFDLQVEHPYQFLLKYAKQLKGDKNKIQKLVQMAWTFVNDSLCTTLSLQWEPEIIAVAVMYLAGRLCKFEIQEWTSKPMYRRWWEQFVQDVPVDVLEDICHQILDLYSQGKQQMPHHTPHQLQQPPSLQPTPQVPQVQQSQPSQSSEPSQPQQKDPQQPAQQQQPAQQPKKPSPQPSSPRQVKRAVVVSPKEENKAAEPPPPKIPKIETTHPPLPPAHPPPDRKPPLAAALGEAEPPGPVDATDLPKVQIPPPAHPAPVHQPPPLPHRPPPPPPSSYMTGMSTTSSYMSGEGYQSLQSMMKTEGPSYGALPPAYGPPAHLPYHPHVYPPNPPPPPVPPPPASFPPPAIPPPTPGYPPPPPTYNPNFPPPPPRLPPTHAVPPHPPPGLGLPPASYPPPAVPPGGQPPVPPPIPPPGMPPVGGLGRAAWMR

One experiment deals with CDK12 wt/CycK (Homo sapiens (Human), UniProt Q9NYV4). The experiment can be described thus: Radiometric protein kinase assay (33PanQinase Activity Assay), Assay Condition A (thiol containing conditions). Format: biochemical.
CDK12 wt/CycK, sequence (Q9NYV4 whole entry): as the sequence (Q9NYV4 whole entry) above
CDK12 wt/CycK, sequence (O75909 whole entry partner): as the sequence (O75909 whole entry partner) above
Settings: not given
An outline of the steps: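 Recombinant human kinase incubated with [33P]ATP, substrate and compound (10 concentrations, 1×10^−04M to 3×10^−09M, singlicate, 1% DMSO) under thiol-containing buffer conditions, 60 min at 30 °C. 33Pi incorporation counted by scintillation; residual activity normalised to no-inhibitor and no-kinase controls, IC50 derived.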
Regarding `C=CC(=O)Nc1ccc(C(=O)N2CC[C@@](C)(Nc3ncc(Cl)cn3)C2)cc1` [Example 109, (R)—N-(4-(3-((5-chloropyrimidin-2-yl)amino)-3-methylpyrrolidine-1-carbonyl)phenyl)acrylamide], the IC50 was in the range of 10000 to 30000 nM.

The same experiment, now with this note: thiol containing conditions (1.2 mM DTT), ATP 0.3 μM; read-out: CDK12 IC50 Condition A.
Turning to `C=CC(=O)Nc1ccc(C(=O)N2CC[C@H](Nc3ncc(Cl)cn3)C2)cc1` [Example 155, (S)—N-(4-(3-((5-chloropyrimidin-2-yl)amino)pyrrolidine-1-carbonyl)phenyl)acrylamide], the IC50 was in the range of 10000 to 30000 nM.

`C=CC(=O)Nc1ccc(C(=O)N2CC[C@@H](Nc3ncc(Cl)c(OCC)n3)C2)cc1N1CCN(C)CC1` [Example 119, (R)—N-(4-(3-((5-chloro-4-ethoxypyrimidin-2-yl)amino)pyrrolidine-1-carbonyl)-2-(4-methylpiperazin-1-yl)phenyl)acrylamide]: the IC50 is 100 to 1000 nM.

Consider `C=CC(=O)Nc1ccc(C(=O)N2CC[C@@H](Nc3ncc(C(F)(F)F)c(NC)n3)C2)cc1` [Example 120, (R)—N-(4-(3-((4-(methylamino)-5-(trifluoromethyl)pyrimidin-2-yl)amino)pyrrolidine-1-carbonyl)phenyl)acrylamide], for which the IC50 is < 100 nM.

On to `C=CC(=O)Nc1ccc(C(=O)N2CC[C@@H](Nc3ncc(C#N)cn3)C2)cc1` [Example 148, (R)—N-(4-(3-((5-cyanopyrimidin-2-yl)amino)pyrrolidine-1-carbonyl)phenyl)acrylamide], for which the IC50 is 100 to 1000 nM.

In the case of `C#Cc1cnc(N[C@@H]2CCN(C(=O)c3ccc(NC(=O)C=C)cc3)C2)nc1` [Example 181, (R)—N-(4-(3-((5-ethynylpyrimidin-2-yl)amino)pyrrolidine-1-carbonyl)phenyl)acrylamide], the IC50 was < 100 nM.

As for `C=CC(=O)Nc1ccc(C(=O)N2CC[C@@H](Nc3ncc(Br)cn3)C2)cc1OCCN1CCC(F)(F)CC1` [Example 162, (R)—N-(4-(3-((5-bromopyrimidin-2-yl)amino)pyrrolidine-1-carbonyl)-2-(2-(4,4-difluoropiperidin-1-yl)ethoxy)phenyl)acrylamide], the IC50 was 100 to 1000 nM.

Take `C=CC(=O)Nc1ccc(C(=O)N2CC[C@@H](Nc3ncc(Cl)c(OCCC#N)n3)C2)cc1` [Example 102, (R)—N-(4-(3-((5-chloro-4-(2-cyanoethoxy)pyrimidin-2-yl)amino)pyrrolidine-1-carbonyl)phenyl)acrylamide]: the IC50 is < 100 nM.

Take `[2H]c1nc(N[C@@H]2CCN(C(=O)c3ccc(NC(=O)C=C)cc3)C2)nc(OC([2H])([2H])[2H])c1Cl` [Example 138, (R)—N-(4-(3-((5-chloro-4-deutero-6-(trideuteromethoxy)pyrimidin-2-yl)amino)pyrrolidine-1-carbonyl)phenyl)acrylamide]: the 50% inhibitory concentration (IC50) was < 100 nM.

Turning to `CN(C)C/C=C/C(=O)Nc1ccc(C(=O)N2CC[C@@H](Nc3ncc(Cl)cn3)C2)cc1` [Example 98, (R,E)-N-(4-(3-((5-chloropyrimidin-2-yl)amino)pyrrolidine-1-carbonyl)phenyl)-4-(dimethylamino)but-2-enamide], the half-maximal inhibitory concentration (IC50) was 1000 to 10000 nM.

As for `C=CC(=O)Nc1ccc(C(=O)N2CC[C@@H](Nc3ncc(C(F)(F)F)cn3)C2)cc1` [Example 184, (R)—N-(4-(3-((5-(trifluoromethyl)pyrimidin-2-yl)amino)pyrrolidine-1-carbonyl)phenyl)acrylamide], the IC50 is < 100 nM.

For `COc1nc(N[C@@H]2CCN(C(=O)c3ccc(NC(=O)/C=C/CN4CC[C@H](F)C4)cn3)C2)ncc1Cl` [Example 171, (E)-N-(6-((R)-3-((5-chloro-4-methoxypyrimidin-2-yl)amino)pyrrolidine-1-carbonyl)pyridin-3-yl)-4-((S)-3-fluoropyrrolidin-1-yl)but-2-enamide], the IC50 lay within 100 to 1000 nM.

Turning to `CC#CC(=O)Nc1ccc(C(=O)N2CC[C@@H](Nc3ncc(Cl)c(OC)n3)C2)cc1` [Example 151, (R)—N-(4-(3-((5-chloro-4-methoxypyrimidin-2-yl)amino)pyrrolidine-1-carbonyl)phenyl)but-2-ynamide], the IC50 is < 100 nM.

Turning to `C=CC(=O)Nc1cccc(C(=O)N2CCC[C@@H](Nc3ncc(Cl)c(OC)n3)C2)c1` [Example 106, (R)—N-(3-(3-((5-chloro-4-methoxypyrimidin-2-yl)amino)piperidine-1-carbonyl)phenyl)acrylamide], the IC50 lay in the range of 10000 to 30000 nM.

For the compound `C=CC(=O)N(C)c1ccc(C(=O)N2CC[C@@H](Nc3ncc(Cl)c(OC)n3)C2)nc1` [Example 77, (R)—N-(6-(3-((5-chloro-4-methoxypyrimidin-2-yl)amino)pyrrolidine-1-carbonyl)pyridin-3-yl)-N-methylacrylamide], the IC50 lay in the range of 100 to 1000 nM.

On to `C=CC(=O)N1CCc2ccc(C(=O)N3CC[C@@H](Nc4ncc(Cl)cn4)C3)cc2C1` [Example 130, (R)-1-(7-(3-((5-chloropyrimidin-2-yl)amino)pyrrolidine-1-carbonyl)-3,4-dihydroisoquinolin-2(1H)-yl)prop-2-en-1-one], for which the IC50 is 100 to 1000 nM.

Turning to `[2H]C([2H])([2H])Oc1nc(N[C@@H]2CCN(C(=O)c3ccc(NC(=O)C=C)cc3)C2)ncc1Cl` [Example 93, (R)—N-(4-(3-((5-chloro-4-(trideuteromethoxy)pyrimidin-2-yl)amino)pyrrolidine-1-carbonyl)phenyl)acrylamide], the IC50 is < 100 nM.

As to `COc1nc(N[C@@H]2CCN(C(=O)c3ccc(NC(=O)/C=C/CN4CCOCC4)cn3)C2)ncc1Cl` [Example 174, (R,E)-N-(6-(3-((5-chloro-4-methoxypyrimidin-2-yl)amino)pyrrolidine-1-carbonyl)pyridin-3-yl)-4-morpholinobut-2-enamide], the IC50 was 100 to 1000 nM.

The next experiment addresses CDK12 (Homo sapiens (Human), UniProt Q9NYV4). The experiment is described as follows: Radiometric protein kinase assay (33PanQinase Activity Assay), Assay Condition B (thiol-free conditions). Format: biochemical. The settings on record: thiol-free conditions (1 mM TCEP, glutathione removed). On the procedure:
Example 2—Assay Condition B (Thiol-Free Conditions)
The IC50 profile of compounds was determined using one protein kinase in a customized, thiol free assay. […] Prior to testing, the 1×10^−03 M stock solutions in column 2 of the master plates were subjected to a serial, semi-logarithmic dilution using 100% DMSO as a solvent. […] Column 1 and 7 were filled with 100% DMSO as controls. Subsequently, 2×10 microliter from each well of the serial diluted copy plates were aliquoted with a 96 channel pipettor into two identical sets of “compound dilution plates”. All plates were barcoded for automated identification and tracking purposes. […] All compounds were stored as powder until being solubilized in DMSO. Solubilized compounds were stored as 1×10^−02 M/100% DMSO stock solutions. Prior to the assay process, 90 microliters of H2O were added to each well of a set of compound dilution plates. To minimize potential precipitation, the H2O was added to each plate only a few minutes before the transfer of the compound solutions into the assay plates. Each plate was shaken thoroughly, resulting in compound dilution plates with a final of 10% DMSO. For each assay, 5 microliters of solution from each well of the compound dilution plates/10% DMSO were transferred into the assay plate. The final volume of the assay was 50 μl. All compounds were tested at 10 final assay concentrations in the range from 1×10^−05 M to 3×10^−10 M, in singlicate. The final DMSO concentration in the reaction cocktails was 1% in all cases. A radiometric protein kinase assay (33PanQinase® Activity Assay) was used for measuring the kinase activity of the protein kinase. All kinase assays were performed in 96-well FlashPlates™ from PerkinElmer (Boston, Mass., USA) in a 50 microliter reaction volume. The reaction cocktail was pipetted in four steps in the following order: 20 microliter of assay buffer (standard buffer)·5 microliter of ATP solution (in H2O)·5 microliter of test compound (in 10% DMSO)·20 microliter enzyme/substrate mix. […] For all experiments labeled as “Thiol-free”, all glutathione was exchanged from protein preparations so as to be removed from the assay and final buffer conditions contained no thiol-containing reagents. This was done so there would be no interference with the key cysteines in the proteins of interest.
For data analysis, the median value of the counts in column 1 (n=8) of each assay plate was defined as “low control”. This value reflects unspecific binding of radioactivity to the plate in the absence of a protein kinase but in the presence of the substrate. The median value of the counts in column 7 of each assay plate (n=8) was taken as the “high control”, i.e. full activity in the absence of any inhibitor. The difference between high and low control was taken as 100% activity. As part of the data evaluation the low control value from a particular plate was subtracted from the high control value as well as from all 80 “compound values” of the corresponding plate. The residual activity (in %) for each well of a particular plate was calculated by using the following formula: Res. Activity (%)=100×[(cpm of compound−low control)/(high control−low control)]
The residual activities for each concentration and the compound IC50 values were calculated using Quattro Workflow V3.1.1 (Quattro Research GmbH, Munich, Germany; www.quattro-research.com). […] The fitting method used was a least-squares fit. As a parameter for assay quality, the Z′-factor (Zhang et al., J. Biomol. Screen. 2: 67-73, 1999) for the low and high controls of each assay plate (n=8) was used. ProQinase's criterion for repetition of an assay plate is a Z′-factor below 0.4 (Iversen et al., J. Biomol. Screen. 3: 247-252, 2006).
As for `C=CC(=O)Nc1ccc(C(=O)N2CC[C@@H](Nc3ncc(Cl)c(OC)n3)C2)cc1N1CCN(C)CC1` [Example 9, (R)-N-(4-(3-((5-chloro-4-methoxypyrimidin-2-yl)amino)pyrrolidine-1-carbonyl)-2-(4-methylpiperazin-1-yl)phenyl)acrylamide], the IC50 was < 100 nM.

The compound `C=CC(=O)Nc1ccc(C(=O)N2CC[C@@H](Nc3ncc(Cl)cn3)C2)cc1-c1cnn(C)c1` [Example 69, (R)—N-(4-(3-((5-chloropyrimidin-2-yl)amino)pyrrolidine-1-carbonyl)-2-(1-methyl-1H-pyrazol-4-yl)phenyl)acrylamide] displayed an IC50 of 100 to 1000 nM.

The compound `C=CC(=O)Nc1ccc(C(=O)N2CCC[C@@H](Nc3nccc(OC4CCCC4)n3)C2)cc1` [Example 40, (R)—N-(4-(3-((4-(cyclopentyloxy)pyrimidin-2-yl)amino)piperidine-1-carbonyl)phenyl)acrylamide] registered an IC50 of 10000 to 30000 nM.

Take `C=CC(=O)Nc1ccc(C(=O)N2CC[C@@H](Nc3ccc(C)cn3)C2)cc1` [Example 75, (R)—N-(4-(3-((5-methylpyridin-2-yl)amino)pyrrolidine-1-carbonyl)phenyl)acrylamide]: the IC50 is 1000 to 10000 nM.

For the compound `C=CC(=O)N1CCc2cc(C(=O)N3CC[C@@H](Nc4ncc(Cl)cn4)C3)ccc21` [Example 30, (R)-1-(5-(3-((5-chloropyrimidin-2-yl)amino)pyrrolidine-1-carbonyl)indolin-1-yl)prop-2-en-1-one], the IC50 was < 100 nM.

Compound `CCC(=O)Nc1ccc(C(=O)N2CC[C@@H](Nc3ncc(Cl)c(OCC(F)(F)F)n3)C2)cc1` [Example 18, (R)—N-(4-(3-((5-chloro-4-(2,2,2-trifluoroethoxy)pyrimidin-2-yl)amino)pyrrolidine-1-carbonyl)phenyl)propionamide] came in with an IC50 of 100 to 1000 nM.

What is called IC50 is the concentration that gives 50% inhibition.
